Data taken from PMC10607054 (International Journal of Molecular Sciences, 2023).
Where two headings read alike, the source gives them in different places.

Key:
[1] = molecular target: T1, PPARγ ligand-binding domain (Homo sapiens, UniProt P37231); test: LanthaScreen TR-FRET PPARγ Coactivator Assay Kit (binding to PPARγ LBD); type: biochemical
T1 construct: PPARγ-LBD was added to the compounds; purchased Life Technologies Corporation
T1 sequence (P37231 238-503 limits assumed): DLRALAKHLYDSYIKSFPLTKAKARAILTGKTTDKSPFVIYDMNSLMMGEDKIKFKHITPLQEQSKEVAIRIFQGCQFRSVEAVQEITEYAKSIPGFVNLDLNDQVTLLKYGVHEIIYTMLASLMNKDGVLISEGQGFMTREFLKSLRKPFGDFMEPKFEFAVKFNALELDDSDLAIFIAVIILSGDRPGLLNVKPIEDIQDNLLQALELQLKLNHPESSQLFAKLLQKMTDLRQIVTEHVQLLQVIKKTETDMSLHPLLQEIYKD
Description: A PPARγ receptor binding assay was performed using the LanthaScreen™ TR-FRET PPARγ Coactivator Assay Kit (Life Technologies Corporation, Grand Island, NY, USA) following the manufacturer’s protocol. Briefly, PPARγ-LBD was added to the compounds, followed by the addition of the antibody (Tb-anti-GST) and a mixture of peptide (Fluorescein-TRAP220/DRIP-2). The reaction mixture was incubated at room temperature for 2 h or overnight.

AhR = molecular target: T2, AhR (Homo sapiens, UniProt P35869); test: cell-based Human AhR Reporter Assay System (luciferase)
T2 construct: purchased INDIGO Biosciences
T2 sequence (P35869 11-848): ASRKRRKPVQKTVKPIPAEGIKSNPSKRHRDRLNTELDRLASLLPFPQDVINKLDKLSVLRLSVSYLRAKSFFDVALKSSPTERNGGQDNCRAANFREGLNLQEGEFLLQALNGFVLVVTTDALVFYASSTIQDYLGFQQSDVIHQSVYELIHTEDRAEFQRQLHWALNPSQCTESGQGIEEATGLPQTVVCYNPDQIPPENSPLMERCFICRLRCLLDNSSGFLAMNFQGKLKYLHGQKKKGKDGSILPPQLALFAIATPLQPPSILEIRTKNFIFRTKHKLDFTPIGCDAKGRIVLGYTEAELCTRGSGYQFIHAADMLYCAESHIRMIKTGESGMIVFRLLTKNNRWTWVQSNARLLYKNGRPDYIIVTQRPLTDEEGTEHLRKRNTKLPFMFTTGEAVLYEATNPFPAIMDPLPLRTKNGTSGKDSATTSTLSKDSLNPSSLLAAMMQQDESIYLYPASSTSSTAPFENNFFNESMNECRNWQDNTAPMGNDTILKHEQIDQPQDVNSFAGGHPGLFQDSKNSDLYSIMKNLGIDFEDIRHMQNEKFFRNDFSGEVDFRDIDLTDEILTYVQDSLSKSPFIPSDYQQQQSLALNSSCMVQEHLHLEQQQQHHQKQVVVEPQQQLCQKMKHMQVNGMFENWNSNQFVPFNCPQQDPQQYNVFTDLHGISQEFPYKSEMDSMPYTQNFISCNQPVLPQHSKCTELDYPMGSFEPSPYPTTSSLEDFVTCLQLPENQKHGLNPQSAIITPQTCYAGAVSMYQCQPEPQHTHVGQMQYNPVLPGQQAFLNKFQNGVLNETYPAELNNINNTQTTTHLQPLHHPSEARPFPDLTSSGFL
Description: Briefly, the reporter cells were recovered using the cell recovery medium for 5 h. […] Luciferase detection reagent was added after discarding the media and luminescence was measured using a Citation 5 Cell Imaging Multi-Mode Reader (BioTek, Winooski, VT, USA).

[2] = system: PPAR-responsive element (PPRE); test: PPRE-driven (J3TKpGL3, apo-AII promoter) Dual-Luciferase reporter assay in melanoma cells; type: cell-based; details: 10^−4 M, 40 h, human melanoma cells WM239A and A375P; vs non-ligand stimulated control
Description: The transcriptional activation of the PPRE promoter was tested using the J3TKpGL3 reporter plasmid, which contains a luciferase gene driven by the PPAR-responsive element (PPRE), which consists of three copies of the J site from the apo-AII gene promoter. The activation of PPAR elements was evaluated in melanoma cells following stimulation with a Firefly–Renilla Dual-Luciferase Reporter System (Promega, Madison, WI, USA). Experiments were carried out using human melanoma line WM239A and A375P (Trust Functional Genomics Cell Bank, London, UK) cells cultured in RPMI culture medium (ThermoFisher Scientific, Waltham, MA, USA) supplemented with 10% fetal bovine serum (EURx, Gdansk, Poland) at 37 °C, with a 5% CO2 content. […] Luciferase activity was measured using a commercial kit (Luciferase Assay System, Promega) according to the instructions of the supplier and assessed in a chemiluminometer (Synergy HT; Bio-Tek, Winooski, VT, USA)) using the Dual-Reporter Luciferase Assay System (Promega, Madison, WI, USA).

[3] = LanthaScreen TR-FRET PPARγ coactivator assay, PPARγ LBD, two independent dose responses, 3 to 4 replicas per assay, read-out: EC50 (M) PPARγ
[4] = value in Figure 3A, representative experiment, read-out: EC50 (PPARγ, representative dose response, Figure 3A)
[5] = Human AhR Reporter Assay System, two independent dose responses, 3 to 4 replicas per assay, mean ± spread (n = 2), read-out: EC50 (M) AhR
[6] = value in Figure 1, representative experiment, read-out: EC50 (AhR, representative dose response, Figure 1)

Row | SMILES | EC50 [1, 3] [M] | EC50 [1, 4] [M] | EC50 (AhR; [5]) [M] | EC50 (AhR; [6]) [M] | stimulation of transcriptional activity of (PPRE)3-containing ApoA-II gene promoter (luciferase, RLU) [2] | EC50 ([1]; EC50 (M) PPARγ, LanthaScreen TR-FRET PPARγ coactivator assay, PPARγ LBD, two independent dose responses, 3 to 4 replicas per assay) [M] | EC50 ([1]; EC50 (PPARγ, representative dose response, Figure 3A), value in Figure 3A, representative experiment) [M] | EC50 (AhR; EC50 (AhR, representative dose response, Figure 1), value in Figure 1, representative experiment) [M] | EC50 (AhR; EC50 (M) AhR, Human AhR Reporter Assay System, two independent dose responses, 3 to 4 replicas per assay, mean ± spread (n = 2)) [M]
1 | COc1ccc(NC=O)c(C(=O)CCNC(C)=O)c1 [AFMK, N^1-acetyl-N^2-formyl-5-methoxykynuramine] | 0.00028 | 0.00011 | 4.4e-05 | 7.5e-05 | statistically significant stimulation | – | – | – | –
2 | N[C@@H](Cc1c[nH]c2ccc(O)cc12)C(=O)O [5(OH)tryptophan, 5-hydroxytryptophan] | – | – | – | – | statistically significant stimulation | – | – | – | –
3 | COc1ccc2[nH]cc(CCNC(C)=O)c2c1 [Melatonin, N-acetyl-5-methoxytryptamine, reference compound] | 0.0012 | 0.00095 | – | – | statistically significant stimulation | – | – | – | –
4 | COc1cc2c(CCNC(C)=O)c[nH]c2cc1O [6-Hydroxymelatonin, 6-hydroxymelatonin] | 0.0037 | 0.0001 | 3.1e-05 | 3.3e-05 | statistically significant stimulation | – | – | – | –
5 | COc1ccc2[nH]cc(CCN)c2c1 [5-MTT, 5-methoxytryptamine] | – | – | – | – | – | 3e-05 | 6.3e-05 | 0.0005 | 0.00029
